Data reported in article PMC8197425, “ATP regulates RNA‐driven cold inducible RNA binding protein phase separation” (Protein Science : A Publication of the Protein Society, 2021).

biological target: T1, CIRBP (Homo sapiens, UniProt Q14011); test: 1H-15N HSQC NMR titration; assay type: binding; conditions: not given
T1 construct: full length (1-172), wild type; His6-protein A tag removed by TEV protease; E. coli BL21-DE3 Star; 15N-labelled
T1 sequence (Q14011 1-172): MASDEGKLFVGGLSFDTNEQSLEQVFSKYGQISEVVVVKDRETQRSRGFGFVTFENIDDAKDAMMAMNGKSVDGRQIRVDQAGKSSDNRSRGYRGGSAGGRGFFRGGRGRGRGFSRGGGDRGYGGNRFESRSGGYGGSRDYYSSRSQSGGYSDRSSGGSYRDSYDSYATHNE
From the text: 1H-15N HSQC NMR titration on CIRBP | ATP binding to CIRBP is in the fast exchange regime with an associated KD

Row | SMILES | Kd [mM]
1 | Nc1ncnc2c1ncn2[C@@H]1O[C@H](COP(=O)(O)OP(=O)(O)OP(=O)(O)O)[C@@H](O)[C@H]1O [ATP] | 2.9 ± 1.4

biological target: T1, CIRBP; test: 1H-15N HSQC NMR chemical shift perturbation; assay type: binding; conditions: 17 μM 15N-CIRBP; 10 mM ligand; 50 mM sodium phosphate, 150 mM NaCl, pH 6.5, 298 K; RRM and RG/RGG region

Row | SMILES | 1H-15N HSQC NMR chemical shift perturbation
2 | Nc1ncnc2c1ncn2[C@@H]1O[C@H](COP(=O)(O)OP(=O)(O)O)[C@@H](O)[C@H]1O [ADP] | ADP and NAD^+ showed binding to CIRBP (Figure 2a,c)
3 | Nc1ncnc2c1ncn2[C@@H]1O[C@H](COP(=O)(O)O)[C@@H](O)[C@H]1O [AMP] | the other tested nucleotides (ATP, AMP)
4 | NC(=O)c1ccc[n+]([C@@H]2O[C@H](COP(=O)(O)OP(=O)(O)OC[C@H]3O[C@@H](n4cnc5c(N)ncnc54)[C@H](O)[C@@H]3O)[C@@H](O)[C@H]2O)c1 [NAD+] | ADP and NAD^+ showed binding to CIRBP (Figure 2a,c)
5 | NC(=O)C1=CN([C@@H]2O[C@H](COP(=O)(O)OP(=O)(O)OC[C@H]3O[C@@H](n4cnc5c(N)ncnc54)[C@H](O)[C@@H]3O)[C@@H](O)[C@H]2O)C=CC1 [NADH] | dinucleotides (NADH, NADP^+ and NADPH) showed significant binding to CIRBP
6 | NC(=O)C1=CN([C@@H]2O[C@H](COP(=O)(O)OP(=O)(O)OC[C@H]3O[C@@H](n4cnc5c(N)ncnc54)[C@H](OP(=O)(O)O)[C@@H]3O)[C@@H](O)[C@H]2O)C=CC1 [NADPH] | dinucleotides (NADH, NADP^+ and NADPH) showed significant binding to CIRBP
